Measurements: article PMC7562955 (Nature Communications, 2020)

Experiments:
TLR1/2 = target: T1, TLR1/2 (Homo sapiens, UniProt O60603+Q15399); test: TNF-α production by human PBMC stimulated by TLR1/2 ligand Pam3CSK4 (ELISA); assay type: cell-based; conditions: human PBMCs, 2.5 μM
T1 construct: Human Peripheral Blood Mononuclear cells (hPBMCs) were collected from healthy adult donors; endogenous in cells; host or cells: primary human PBMCs

mouse TLR9 = target: T2, mouse TLR9 (Mus musculus, UniProt Q9EQU3); test: Mouse TLR9 reporter gene assay (NF-kB luciferase, HEK293); assay type: cell-based; conditions: CpG1826 100 nM
T2 construct: host or cells: HEK293 (293-mTLR9)
T2 sequence (Q9EQU3 26-1032): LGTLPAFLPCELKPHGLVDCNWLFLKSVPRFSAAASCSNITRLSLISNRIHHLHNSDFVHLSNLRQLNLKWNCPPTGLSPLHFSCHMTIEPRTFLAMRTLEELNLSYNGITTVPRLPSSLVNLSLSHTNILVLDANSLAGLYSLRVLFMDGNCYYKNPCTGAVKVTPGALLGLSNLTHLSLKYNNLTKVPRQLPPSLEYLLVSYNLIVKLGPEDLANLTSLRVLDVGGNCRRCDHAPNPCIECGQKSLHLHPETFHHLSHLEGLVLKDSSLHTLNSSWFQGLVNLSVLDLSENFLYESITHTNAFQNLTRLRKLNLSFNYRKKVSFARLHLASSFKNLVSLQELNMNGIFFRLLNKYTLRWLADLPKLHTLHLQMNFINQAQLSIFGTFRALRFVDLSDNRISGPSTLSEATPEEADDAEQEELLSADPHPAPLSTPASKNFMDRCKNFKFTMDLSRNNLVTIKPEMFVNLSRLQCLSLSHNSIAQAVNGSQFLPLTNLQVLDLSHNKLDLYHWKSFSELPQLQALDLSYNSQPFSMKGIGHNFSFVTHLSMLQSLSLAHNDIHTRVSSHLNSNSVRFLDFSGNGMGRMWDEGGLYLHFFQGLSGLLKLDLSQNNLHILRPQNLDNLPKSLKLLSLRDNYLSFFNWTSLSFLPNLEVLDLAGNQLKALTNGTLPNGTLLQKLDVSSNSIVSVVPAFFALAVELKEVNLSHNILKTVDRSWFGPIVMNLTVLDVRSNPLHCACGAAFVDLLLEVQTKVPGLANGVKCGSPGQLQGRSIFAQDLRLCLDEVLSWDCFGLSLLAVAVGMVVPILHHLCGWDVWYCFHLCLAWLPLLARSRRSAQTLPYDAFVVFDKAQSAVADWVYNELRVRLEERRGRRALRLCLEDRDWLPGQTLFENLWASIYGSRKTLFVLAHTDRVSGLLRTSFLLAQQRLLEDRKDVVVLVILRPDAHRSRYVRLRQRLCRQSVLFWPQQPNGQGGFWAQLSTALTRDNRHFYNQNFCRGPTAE
Method: Compounds were dissolved in dimethyl sulfoxide. The day before transfection, mouse TLR7 genestably-expressing HE293 cell line (293XL-mTLR7 cell, InvivoGen, USA) and mouse TLR9 genestably-expressing HEK293 cell line (293-mTLR9 cell, InvivoGen) were seeded in collagen-coated 6-well plate (AGC techno glass) at 3 × 10^5 cells/well in DMEM (GIBCO) with 10% fetal bovine serum (GIBCO), and 10 μg ml^−1 Blastcidin S HCl (GIBCO) and incubated at 37 °C in 5% CO2. The plates were incubated over-night and then cotransfected with 1 μg (mouse TLR7) or 0.3 μg (mouse TLR9) of pNF-kB-Luciferase reporter in a 10:1 ratio with 4 μl of FuGene6 transfection reagent (Promega corporation, USA) following the manufacturer’s instructions. The plates were incubated 24 h. The cells re-seeded into 96-well plate (AGC techno glass) at 2 × 10^4 cells/well in DMEM (GIBCO) with 10% fetal bovine serum (GIBCO), and 10 μg ml^−1 Blastcidin S HCl (GIBCO) and then inhibition with various concentrations of compound. HCQ (mouse TLR7/9, Acros Organics, United Kingdom) was used as positive control. After 30 min, R848 (mouse TLR7/8 ligand) or CpG1826 (mouse TLR9 ligand, Hokkaido System Science Co., Ltd.) added to each well, wherein each final concentration were adjusted to 200 nM R848 (mouse TLR7) or 100 nM CpG1826 (mouse TLR9). The plates were then incubated an additional 6 h at 37 °C in 5% CO2, and then the luciferase activity was measured as activation of mouse TLR7 and 9. The luciferase activity was evaluated as follows: Bright-GloTM Luciferase Assay System (Promega) was added to the incubated sample (100 μl/well); after 2 min, the luminescence intensity of each sample was measured with a luminometer (Envision).

T1 sequence (Q15399 25-786): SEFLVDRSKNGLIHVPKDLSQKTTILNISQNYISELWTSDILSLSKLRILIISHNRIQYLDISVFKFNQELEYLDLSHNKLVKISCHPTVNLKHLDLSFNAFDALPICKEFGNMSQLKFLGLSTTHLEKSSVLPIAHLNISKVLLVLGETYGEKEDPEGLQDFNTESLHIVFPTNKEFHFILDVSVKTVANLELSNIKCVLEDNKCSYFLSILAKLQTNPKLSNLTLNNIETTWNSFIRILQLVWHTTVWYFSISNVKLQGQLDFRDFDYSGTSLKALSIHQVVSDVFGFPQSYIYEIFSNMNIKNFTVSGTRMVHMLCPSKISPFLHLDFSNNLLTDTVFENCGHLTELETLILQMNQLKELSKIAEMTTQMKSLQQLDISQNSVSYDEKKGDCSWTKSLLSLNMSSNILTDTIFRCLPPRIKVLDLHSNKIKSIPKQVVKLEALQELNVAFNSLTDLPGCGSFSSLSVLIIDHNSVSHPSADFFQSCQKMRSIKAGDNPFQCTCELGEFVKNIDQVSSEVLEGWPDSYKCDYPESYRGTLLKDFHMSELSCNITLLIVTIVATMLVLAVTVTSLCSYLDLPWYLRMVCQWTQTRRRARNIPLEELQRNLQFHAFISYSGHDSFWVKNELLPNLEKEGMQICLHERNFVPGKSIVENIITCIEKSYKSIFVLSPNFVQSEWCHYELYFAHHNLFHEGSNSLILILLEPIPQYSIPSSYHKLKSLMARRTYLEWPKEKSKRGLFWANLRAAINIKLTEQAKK
T1 sequence (O60603 19-784 limits assumed): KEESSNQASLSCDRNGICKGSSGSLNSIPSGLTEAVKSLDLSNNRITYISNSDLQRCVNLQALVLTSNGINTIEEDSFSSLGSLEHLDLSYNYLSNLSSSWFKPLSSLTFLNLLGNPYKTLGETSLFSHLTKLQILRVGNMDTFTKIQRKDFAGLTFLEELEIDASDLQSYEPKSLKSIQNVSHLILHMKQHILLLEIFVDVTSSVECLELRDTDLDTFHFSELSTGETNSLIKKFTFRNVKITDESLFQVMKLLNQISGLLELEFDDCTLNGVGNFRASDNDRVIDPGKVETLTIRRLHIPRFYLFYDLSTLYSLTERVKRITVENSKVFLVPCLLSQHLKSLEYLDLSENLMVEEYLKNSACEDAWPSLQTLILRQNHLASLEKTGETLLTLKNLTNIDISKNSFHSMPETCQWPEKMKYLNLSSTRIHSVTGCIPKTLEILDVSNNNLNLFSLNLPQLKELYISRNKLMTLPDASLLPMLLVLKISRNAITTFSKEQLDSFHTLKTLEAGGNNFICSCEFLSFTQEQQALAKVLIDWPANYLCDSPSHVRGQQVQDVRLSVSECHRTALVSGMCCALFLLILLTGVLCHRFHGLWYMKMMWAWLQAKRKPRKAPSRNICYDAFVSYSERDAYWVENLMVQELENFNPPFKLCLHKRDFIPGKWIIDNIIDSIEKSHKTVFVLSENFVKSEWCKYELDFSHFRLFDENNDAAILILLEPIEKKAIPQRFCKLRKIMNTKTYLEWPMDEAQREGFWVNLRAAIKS

SMILES	cytotoxicity (TLR1/2)	mouse TLR9 activity, reporter signal (mouse TLR9; compound 0.0001 nM (as headed))	mouse TLR9 activity, reporter signal (mouse TLR9; compound 0.001 nM (as headed))	mouse TLR9 activity, reporter signal (mouse TLR9; compound 0.003 nM (as headed))	mouse TLR9 activity, reporter signal (mouse TLR9; compound 0.01 nM (as headed))	mouse TLR9 activity, reporter signal (mouse TLR9; compound 0.03 nM (as headed))	mouse TLR9 activity, reporter signal (mouse TLR9; compound 0.1 nM (as headed))	mouse TLR9 activity, reporter signal (mouse TLR9; compound 0.3 nM (as headed))	mouse TLR9 activity, reporter signal (mouse TLR9; compound 1 nM (as headed))	mouse TLR9 activity, reporter signal (mouse TLR9; compound 3 nM (as headed))	mouse TLR9 activity, reporter signal (mouse TLR9; compound 10 nM (as headed))	mouse TLR9 activity, reporter signal (mouse TLR9; compound 30 nM (as headed))	mouse TLR9 activity, reporter signal (mouse TLR9; compound 100 nM (as headed))
CCOc1nc(N)c2nc(-c3cncc(F)c3)n(Cc3ccc(CN4C[C@@H]5C[C@H]4CN5C)cc3)c2n1 [Cpd-6]	not cytotoxic												
CCOc1nc(C)c2nc(-c3cncc(F)c3)n(Cc3ccc(CN4C[C@@H]5C[C@H]4CN5C)cc3)c2n1 [Cpd-7]	not cytotoxic	670258	769686	682550	681778	778720	762582	758536	750674	718794	519616	67454	0
CCN(CCO)CCCC(C)Nc1ccnc2cc(Cl)ccc12 (centres unmarked) [HCQ, hydroxychloroquine, reference compound]		670258	691508	691964	727784	642512	455236	212962	48988	7184	3474	3862	0
